Reference: patent US20050244490A1, “Dosing methods for beta-D-2',3'-dideoxy-2',3'-didehydro-5-fluorocytidine antiviral therapy” (priority 2003, published 2005)
Where “and” joins values, the source holds several entries; their conditions need not be identical. Identical values can stand only once. Like-named read-outs stand apart in the source and are kept apart here.

What was measured:
[1] = tested on: AZT/3TC-resistant HIV-1 recombinant viruses; experiment: microbe, parasite or virus in culture; type: cell-based
Protocol: A panel of 22 viruses was constructed in the HXB2 background using the Protease and RT sequences from clinical isolates to determine Virco Profiling against recombinant clinical isolates (see FIGS. 7a and 7b). Viruses contained 2 to 17 mutations in RT frequently associated with nucleoside resistance, including: M184V, M41L, D67N, T215Y. IC50 values were determined using a high through-put reporter virus assay.

[2] = Cytotoxicity, MTT reduction; type: cell-based; conditions: read-out: TC50
Protocol: Cytotoxicity was measured by reduction of the formazan dye MTT, which is catalyzed by mitochondrial succinate dehydrogenase.

plasma HIV-1 RNA = type: in vivo; conditions: for reduction of viral load: 48 hours
Protocol: The study consisted of a double-blind, randomized, placebo-controlled, three-period crossover, dose escalation design in HIV-infected male subjects. Five dose levels (10, 25, 50, 100, and 200 mg) were administered in three cohort studies. Seven days elapsed between the end of one cohort and the start of the next dosing period.

[3] = Safety and tolerability of single oral doses
Text: Total of 18 HIV-1 infected males, aged 18-55 years, enrolled, 6 per treatment cohort.

HIV viral load = experiment: Viral load decline on repeated dosing, β-D-D4FC and competing nucleosides; type: in vivo; conditions: 50 mg QD, duration of dosing 10
[4] = pbmc
wild type HIV-1 = conditions: read-out: in vitro EC90 for wild type virus; cited from earlier work
in vivo = conditions: dog, 15 mg/kg
[5] = Food effect, fed versus fasted crossover (Cohort 4); conditions: for AUC / AUC(0-inf) / CL/F / Cmax / half-life / Tmax: human, plasma, oral, 100 mg, PART B; for AUC: AUC(0-τ); for CL/F: CLtot/F; for half-life: t1/2 λz
[6] = 100 MG FED, coated tablet after high fat meal

## Nc1nc(=O)n(C2C=CC(CO)O2)cc1F [β-D-D4FC, β-D-2′,3′-Didehydro-2′,3′-dideoxy-5-fluorocytidine]
[1]; AZT, 3TC and co-resistant variants
  target value of parent compound for >90% suppression: 5 µM
[1]; Human immunodeficiency virus 1, read-out: Average IC90 for AZT/3TC-R virus
  IC90: 5.5 µM
[1]; Q151M or D69S insertions plus at least 5 additional mutations
  activity against multi-drug resistant strains: only weakly active
[1]; at 5 μM in vitro
  suppression of most mutant variants tested: ≥ 90%
[1]; including AZT and 3TC resistant variants
  clinically significant HIV mutant strains inhibited: more than 80%
[1]; recombinant viruses with as many as 10 mutations incl. M41L, M184V, D67N, L74V, K70R, T215Y or K219Q
  reduction in activity: less than 5 fold
[2]; African green monkey, Vero cells
  CC50 at 96 h: > 100 µM
[2]; PBMCs
  CC50 at 144 h: > 100 µM
[2]; hamster, BHK-21 cells
  CC50 at 30 h: > 30 µM
[2]; human, 293 cells
  CC50 at 24 h: > 30 µM
[2]; human, Huh7 cells
  CC50 at 48 h: > 30 µM
[2]; human, MT-2 cells
  CC50 at 72 h: > 220 µM
Plasma HIV-1 RNA; 10 mg
  drop in viral load, subject with mutant virus L41+N103+C181+W210+D215: 0.61 log10
Plasma HIV-1 RNA; 10 mg dose
  reduction of viral load: 0.42±0.2 log10 and 0.42 log10
Plasma HIV-1 RNA; 10 mg, 12 h
  Change in Plasma HIV-1 RNA: 0.05 ± 0.09 log10
Plasma HIV-1 RNA; 10 mg, 24 h
  Change in Plasma HIV-1 RNA: −0.12 ± 0.14 log10
Plasma HIV-1 RNA; 10 mg, 48 h
  Change in Plasma HIV-1 RNA: −0.42 ± 0.20 log10
Plasma HIV-1 RNA; 25 mg
  drop in viral load, subject with mutant virus L41+N103+C181+W210+D215: 0.43 log10
Plasma HIV-1 RNA; 25 mg, 12 h
  Change in Plasma HIV-1 RNA: 0.03 ± 0.09 log10
Plasma HIV-1 RNA; 25 mg, 24 h
  Change in Plasma HIV-1 RNA: −0.13 ± 0.10 log10
Plasma HIV-1 RNA; 25 mg, 48 h
  Change in Plasma HIV-1 RNA: −0.34 ± 0.26 log10
Plasma HIV-1 RNA; 100 mg, 12 h
  Change in Plasma HIV-1 RNA: −0.03 ± 0.08 log10
Plasma HIV-1 RNA; 100 mg, 24 h
  Change in Plasma HIV-1 RNA: −0.15 ± 0.14 log10
Plasma HIV-1 RNA; 100 mg, 48 h
  Change in Plasma HIV-1 RNA: −0.44 ± 0.17 log10
Plasma HIV-1 RNA; 100 mg
  reduction of viral load: 0.44±0.17
Plasma HIV-1 RNA; 200 mg, 12 h
  Change in Plasma HIV-1 RNA: −0.02 ± 0.24 log10
Plasma HIV-1 RNA; 200 mg, 24 h
  Change in Plasma HIV-1 RNA: −0.06 ± 0.22 log10
Plasma HIV-1 RNA; 200 mg, 48 h
  Change in Plasma HIV-1 RNA: −0.27 ± 0.28 log10
Plasma HIV-1 RNA; 50s mg (solution), 12 h
  Change in Plasma HIV-1 RNA: 0.00 ± 0.00 log10
Plasma HIV-1 RNA; 50s mg (solution), 24 h
  Change in Plasma HIV-1 RNA: −0.11 ± 0.07 log10
Plasma HIV-1 RNA; 50s mg (solution), 48 h
  Change in Plasma HIV-1 RNA: −0.44 ± 0.02 log10
Plasma HIV-1 RNA; 50t mg (tablet), 12 h
  Change in Plasma HIV-1 RNA: 0.05 ± 0.07 log10
Plasma HIV-1 RNA; 50t mg (tablet), 24 h
  Change in Plasma HIV-1 RNA: −0.08 ± 0.07 log10
Plasma HIV-1 RNA; 50t mg (tablet), 48 h
  Change in Plasma HIV-1 RNA: −0.46 ± 0.25 log10
Plasma HIV-1 RNA; 24 hour time point
  average reduction of viral load: 0.11±0.11
Plasma HIV-1 RNA; all dose levels, up to 48 hours
  mean reduction of viral load after a single oral dose: 0.4±0.2 log10 and 0.42±0.2 log10
Plasma HIV-1 RNA; various dosage levels, 24 and 48 hours
  mean reduction of viral load after a single oral dose: approximately 40%
[3]; any dose level
  serious adverse events: no serious adverse events
[3]; in vivo
  tolerability of single doses: well tolerated
HIV viral load
  Viral Load Decline (log): −1.67 log
[4]
  Intracellular half life: 13 to 17 h
Wild type HIV-1
  EC90: 0.9 µM and < 1 µM
In vivo; female
  AUC at 12 m: 431 µM·h
  Cmax at 12 m: 69 µM
In vivo; male
  AUC at 12 m: 401 µM·h
  Cmax at 12 m: 74 µM
[5]; 100 mg coated tablets, high fat meal
  Cmax and AUC values in the fed regimen as fraction of the fasted regimen: less than 1/10
[5]; 100 MG FASTED, coated tablet
  AUC: 6110 ng·h/mL
  AUC(0-inf): 6170 ng·h/mL
  CL/F: 478 mL/min
  Cmax: 1160 ng/mL
  half-life: 8.61 h
  Tmax: 1.83 h
[5]; [6]
  AUC: 542 ng·h/mL
  AUC(0-inf): 643 ng·h/mL
  CL/F: 3380 mL/min
  Cmax: 90 ng/mL
  half-life: 4.38 h
  Tmax: 2.5 h
